The results in this text go back to ChEMBL document CHEMBL3132769, “Fragment growing to retain or alter the selectivity of anchored kinase hinge-binding fragments” (Medchemcomm, 2014).

SMILES strings stand for the structures.

In assay [1] the test system is Tyrosine-protein kinase ABL1 (Homo sapiens), P00519 [Q252H]. Briefly: Inhibition of human truncated ABL Q252H mutant expressed in baculovirus assessed as substrate phosphorylation using fluorescence-labelled peptides as substrate at 8 uM after 90 mins by microfluidic peptide phosphorylation assay.
The target of assay [2] is Protein kinase C eta type (Homo sapiens) (UniProt P24723). The experiment in a line: Inhibition of human truncated PKC eta expressed in baculovirus assessed as substrate phosphorylation using fluorescence-labelled peptides as substrate at 8 uM after 90 mins by microfluidic peptide phosphorylation assay.
Chain of Protein kinase C eta type (Homo sapiens) (P24723 whole entry, the tested form may be a part, canonical isoform): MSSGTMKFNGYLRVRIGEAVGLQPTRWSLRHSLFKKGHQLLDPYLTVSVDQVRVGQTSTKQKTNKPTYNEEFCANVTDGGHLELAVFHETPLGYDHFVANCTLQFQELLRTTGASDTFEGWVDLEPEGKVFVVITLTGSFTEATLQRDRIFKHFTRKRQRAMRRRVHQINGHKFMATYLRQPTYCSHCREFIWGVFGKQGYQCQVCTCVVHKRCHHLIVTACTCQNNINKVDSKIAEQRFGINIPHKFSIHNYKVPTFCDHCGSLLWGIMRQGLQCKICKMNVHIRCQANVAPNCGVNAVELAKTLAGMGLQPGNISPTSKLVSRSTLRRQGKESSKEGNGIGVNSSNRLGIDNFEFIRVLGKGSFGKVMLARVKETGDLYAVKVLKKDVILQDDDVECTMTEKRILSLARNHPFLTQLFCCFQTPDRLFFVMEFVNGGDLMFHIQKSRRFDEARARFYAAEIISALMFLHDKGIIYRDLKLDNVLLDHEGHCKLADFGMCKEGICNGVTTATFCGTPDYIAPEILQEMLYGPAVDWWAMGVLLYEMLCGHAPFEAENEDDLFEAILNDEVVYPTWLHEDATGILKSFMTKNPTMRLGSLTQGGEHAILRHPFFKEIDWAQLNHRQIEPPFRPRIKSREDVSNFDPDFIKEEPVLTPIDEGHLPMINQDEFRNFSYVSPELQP
The target in assay [3] is Casein kinase I isoform delta (Homo sapiens) (UniProt P48730). The experiment in a line: Inhibition of human CK1D catalytic domain expressed in Escherichia coli cell assessed as substrate phosphorylation using fluorescence-labelled peptides as substrate at 420 uM after 90 mins by microfluidic peptide phosphorylation assay.
Chain of Casein kinase I isoform delta (Homo sapiens) (P48730 whole entry, looked up, the tested form may be a part, canonical isoform): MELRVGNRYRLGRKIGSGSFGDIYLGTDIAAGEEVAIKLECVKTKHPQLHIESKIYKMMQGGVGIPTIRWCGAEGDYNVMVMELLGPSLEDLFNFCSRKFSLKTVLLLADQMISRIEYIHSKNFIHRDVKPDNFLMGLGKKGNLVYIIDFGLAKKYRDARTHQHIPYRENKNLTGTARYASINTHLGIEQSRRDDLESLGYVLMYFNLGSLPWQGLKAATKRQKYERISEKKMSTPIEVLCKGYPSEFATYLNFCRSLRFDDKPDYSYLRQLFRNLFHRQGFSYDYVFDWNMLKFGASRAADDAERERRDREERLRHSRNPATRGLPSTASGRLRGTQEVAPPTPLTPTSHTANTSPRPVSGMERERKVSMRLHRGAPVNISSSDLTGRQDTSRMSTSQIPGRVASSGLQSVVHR
The target in assay [4] is Mitogen-activated protein kinase 14 (Homo sapiens) (UniProt Q16539). Briefly: Inhibition of human truncated p38 alpha expressed in Escherichia coli cell assessed as substrate phosphorylation using fluorescence-labelled peptides as substrate at 420 uM after 90 mins by microfluidic peptide phosphorylation assay.
Chain of Mitogen-activated protein kinase 14 (Homo sapiens) (Q16539 whole entry, the tested form may be a part): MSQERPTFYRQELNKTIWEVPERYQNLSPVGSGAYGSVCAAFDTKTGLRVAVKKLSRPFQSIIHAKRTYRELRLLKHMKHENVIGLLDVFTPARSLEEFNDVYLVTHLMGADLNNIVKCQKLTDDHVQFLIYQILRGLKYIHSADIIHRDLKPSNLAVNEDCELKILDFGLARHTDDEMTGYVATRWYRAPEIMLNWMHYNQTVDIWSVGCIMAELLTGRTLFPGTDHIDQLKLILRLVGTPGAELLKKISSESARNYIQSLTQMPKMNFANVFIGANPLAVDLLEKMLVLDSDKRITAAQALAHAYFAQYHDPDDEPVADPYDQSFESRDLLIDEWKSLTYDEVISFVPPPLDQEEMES
For assay [5], the target named is Insulin receptor (Homo sapiens) (UniProt P06213). The experiment in a line: Inhibition of human INSR catalytic domain expressed in baculovirus assessed as substrate phosphorylation using fluorescence-labelled peptides as substrate at 420 uM after 90 mins by microfluidic peptide phosphorylation assay.
Assay [6] relates to Tyrosine-protein kinase ABL1 (Homo sapiens), P00519 [H396P]. Briefly: Inhibition of human truncated ABL H396P mutant expressed in baculovirus assessed as substrate phosphorylation using fluorescence-labelled peptides as substrate at 420 uM after 90 mins by microfluidic peptide phosphorylation assay.
Assay [7] addresses Rho-associated protein kinase 2 (Homo sapiens) (UniProt O75116). To be noted: 0.1 uM.
Description: Inhibition of human ROCK2 catalytic domain expressed in baculovirus assessed as substrate phosphorylation using fluorescence-labelled peptides as substrate at 0.1 uM after 90 mins by microfluidic peptide phosphorylation assay
For assay [8], the species on record is Homo sapiens. The experiment in a line: Inhibition of human full length PKA expressed in baculovirus assessed as substrate phosphorylation using fluorescence-labelled peptides as substrate at 0.06 uM after 90 mins by microfluidic peptide phosphorylation assay.
In assay [9] the target is Tyrosine-protein kinase Fer (Homo sapiens) (UniProt P16591). The experiment in a line: Inhibition of human FER catalytic domain expressed in baculovirus assessed as substrate phosphorylation using fluorescence-labelled peptides as substrate at 0.2 uM after 90 mins by microfluidic peptide phosphorylation assay.
Chain of Tyrosine-protein kinase Fer (Homo sapiens) (P16591 whole entry, looked up, the tested form may be a part): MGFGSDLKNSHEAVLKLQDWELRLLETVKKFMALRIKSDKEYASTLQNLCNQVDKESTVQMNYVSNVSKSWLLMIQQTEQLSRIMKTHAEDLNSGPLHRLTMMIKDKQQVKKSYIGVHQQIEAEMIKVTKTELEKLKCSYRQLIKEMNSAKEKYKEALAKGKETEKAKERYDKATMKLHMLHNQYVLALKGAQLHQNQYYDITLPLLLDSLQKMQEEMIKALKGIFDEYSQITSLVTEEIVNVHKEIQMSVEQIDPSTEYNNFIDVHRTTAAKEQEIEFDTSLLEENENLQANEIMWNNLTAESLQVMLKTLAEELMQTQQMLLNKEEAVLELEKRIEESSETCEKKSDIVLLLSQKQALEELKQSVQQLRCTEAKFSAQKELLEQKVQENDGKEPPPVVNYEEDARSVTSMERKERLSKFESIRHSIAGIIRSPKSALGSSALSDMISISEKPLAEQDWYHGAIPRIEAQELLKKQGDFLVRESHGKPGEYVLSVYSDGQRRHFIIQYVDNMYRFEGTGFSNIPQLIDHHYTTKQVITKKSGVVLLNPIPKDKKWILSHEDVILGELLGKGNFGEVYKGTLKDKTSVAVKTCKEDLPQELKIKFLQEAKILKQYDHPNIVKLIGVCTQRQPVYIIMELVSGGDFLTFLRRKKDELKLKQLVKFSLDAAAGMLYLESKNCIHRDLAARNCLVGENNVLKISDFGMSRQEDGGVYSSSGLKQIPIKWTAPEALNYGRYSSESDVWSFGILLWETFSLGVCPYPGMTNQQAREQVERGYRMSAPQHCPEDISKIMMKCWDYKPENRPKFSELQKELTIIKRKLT
Assay [10] has as its target Tyrosine-protein kinase ABL1 (Homo sapiens) (UniProt P00519). The experiment in a line: Inhibition of human full-length ABL expressed in baculovirus assessed as substrate phosphorylation using fluorescence-labelled peptides as substrate at 9 uM after 90 mins by microfluidic peptide phosphorylation assay.
The target of assay [11] is Mitogen-activated protein kinase 3 (Homo sapiens) (UniProt P27361). Briefly: Inhibition of human full length ERK1 expressed in Escherichia coli cell assessed as substrate phosphorylation using fluorescence-labelled peptides as substrate at 70 uM after 90 mins by microfluidic peptide phosphorylation assay.
Chain of Mitogen-activated protein kinase 3 (Homo sapiens) (P27361 whole entry): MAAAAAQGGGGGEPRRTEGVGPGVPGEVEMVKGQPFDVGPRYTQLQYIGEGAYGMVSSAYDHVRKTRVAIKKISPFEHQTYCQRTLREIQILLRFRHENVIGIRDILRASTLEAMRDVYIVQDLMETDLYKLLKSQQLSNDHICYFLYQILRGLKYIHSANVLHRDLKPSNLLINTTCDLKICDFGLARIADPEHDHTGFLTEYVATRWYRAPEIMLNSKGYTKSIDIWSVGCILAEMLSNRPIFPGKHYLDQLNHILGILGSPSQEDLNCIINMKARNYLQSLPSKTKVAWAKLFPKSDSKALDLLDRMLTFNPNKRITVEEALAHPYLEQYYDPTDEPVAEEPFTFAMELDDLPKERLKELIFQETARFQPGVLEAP
Assay [12] addresses T1, Serine/threonine-protein kinase 3 (Homo sapiens) (UniProt Q13188).
T1 sequence (whole entry): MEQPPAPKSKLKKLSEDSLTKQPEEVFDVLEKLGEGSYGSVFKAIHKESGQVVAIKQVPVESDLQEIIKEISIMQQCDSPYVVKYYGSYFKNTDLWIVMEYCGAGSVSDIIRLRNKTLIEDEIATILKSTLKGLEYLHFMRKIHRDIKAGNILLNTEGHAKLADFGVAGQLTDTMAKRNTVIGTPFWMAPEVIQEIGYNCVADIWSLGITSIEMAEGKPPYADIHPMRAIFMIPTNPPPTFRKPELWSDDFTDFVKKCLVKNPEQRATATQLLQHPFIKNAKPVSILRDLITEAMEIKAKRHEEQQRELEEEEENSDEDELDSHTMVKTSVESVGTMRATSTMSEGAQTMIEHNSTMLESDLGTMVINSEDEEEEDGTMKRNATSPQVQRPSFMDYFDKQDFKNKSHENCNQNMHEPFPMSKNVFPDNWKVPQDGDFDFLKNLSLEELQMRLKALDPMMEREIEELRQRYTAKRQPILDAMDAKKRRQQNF
Briefly: Inhibition of human full length MST2 expressed in baculovirus assessed as substrate phosphorylation using fluorescence-labelled peptides as substrate at 70 uM after 90 mins by microfluidic peptide phosphorylation assay.

The target in assay [13] is Protein kinase C beta type (Homo sapiens) (UniProt P05771). Briefly: Inhibition of human truncated PKC beta1 expressed in baculovirus assessed as substrate phosphorylation using fluorescence-labelled peptides as substrate at 2 uM after 90 mins by microfluidic peptide phosphorylation assay.
Chain of Protein kinase C beta type (Homo sapiens) (P05771 2-671 limits assumed): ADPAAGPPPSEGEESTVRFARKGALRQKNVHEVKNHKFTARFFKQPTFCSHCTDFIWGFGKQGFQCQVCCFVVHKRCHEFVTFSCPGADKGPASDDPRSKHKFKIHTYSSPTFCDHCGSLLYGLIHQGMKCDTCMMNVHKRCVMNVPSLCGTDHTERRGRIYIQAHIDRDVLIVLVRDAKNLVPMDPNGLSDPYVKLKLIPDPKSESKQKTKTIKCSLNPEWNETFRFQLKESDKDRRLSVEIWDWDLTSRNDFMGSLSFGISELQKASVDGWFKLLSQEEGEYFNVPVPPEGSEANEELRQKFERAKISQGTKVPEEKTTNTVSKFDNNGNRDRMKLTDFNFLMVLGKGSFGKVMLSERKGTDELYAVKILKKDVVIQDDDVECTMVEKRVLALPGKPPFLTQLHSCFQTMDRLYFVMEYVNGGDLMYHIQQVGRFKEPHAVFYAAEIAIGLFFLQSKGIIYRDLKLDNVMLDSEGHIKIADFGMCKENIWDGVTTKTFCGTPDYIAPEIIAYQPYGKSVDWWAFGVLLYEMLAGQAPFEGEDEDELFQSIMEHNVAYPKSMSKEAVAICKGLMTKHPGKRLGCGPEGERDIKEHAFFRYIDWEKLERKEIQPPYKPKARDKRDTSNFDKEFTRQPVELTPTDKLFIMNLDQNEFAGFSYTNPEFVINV
Assay [14] has as its target Tyrosine-protein kinase Lyn (Homo sapiens) (UniProt P07948). Briefly: Inhibition of human full length LYN expressed in baculovirus assessed as substrate phosphorylation using fluorescence-labelled peptides as substrate at 2 uM after 90 mins by microfluidic peptide phosphorylation assay.
Assay [15] has as its system Tyrosine-protein kinase ABL1 (Homo sapiens), P00519 [T315I]. Briefly: Inhibition of human truncated ABL T315I mutant expressed in baculovirus assessed as substrate phosphorylation using fluorescence-labelled peptides as substrate at 95 uM after 90 mins by microfluidic peptide phosphorylation assay.
Assay [16] concerns the target T2, Calcium/calmodulin-dependent protein kinase type IV (Homo sapiens) (UniProt Q16566).
T2 sequence (whole entry): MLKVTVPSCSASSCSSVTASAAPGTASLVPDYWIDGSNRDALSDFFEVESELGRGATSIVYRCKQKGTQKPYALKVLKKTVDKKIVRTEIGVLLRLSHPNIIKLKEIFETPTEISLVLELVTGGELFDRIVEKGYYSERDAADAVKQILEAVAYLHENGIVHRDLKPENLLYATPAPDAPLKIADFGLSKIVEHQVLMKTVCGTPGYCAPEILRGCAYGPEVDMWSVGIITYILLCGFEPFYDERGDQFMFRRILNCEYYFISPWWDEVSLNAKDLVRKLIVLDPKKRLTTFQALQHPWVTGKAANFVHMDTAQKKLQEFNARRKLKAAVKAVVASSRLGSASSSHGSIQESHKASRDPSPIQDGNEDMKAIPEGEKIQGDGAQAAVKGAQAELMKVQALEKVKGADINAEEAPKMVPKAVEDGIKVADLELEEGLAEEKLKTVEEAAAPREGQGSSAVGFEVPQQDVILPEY
The experiment in a line: Inhibition of human full length CAMK4 expressed in baculovirus assessed as substrate phosphorylation using fluorescence-labelled peptides as substrate at 95 uM after 90 mins by microfluidic peptide phosphorylation assay.

The species named for assay [17] is Homo sapiens. The experiment in a line: Inhibition of human P70S6K catalytic domain expressed in baculovirus assessed as substrate phosphorylation using fluorescence-labelled peptides as substrate at 95 uM after 90 mins by microfluidic peptide phosphorylation assay.
The target of assay [18] is Protein kinase C eta type (Homo sapiens) (UniProt P24723). The experiment in a line: Inhibition of human truncated PKC eta expressed in baculovirus assessed as substrate phosphorylation using fluorescence-labelled peptides as substrate at 1000 uM after 90 mins by microfluidic peptide phosphorylation assay.
Assay [19] concerns the target Tyrosine-protein kinase Fer (Homo sapiens) (UniProt P16591). The experiment in a line: Inhibition of human FER catalytic domain expressed in baculovirus assessed as substrate phosphorylation using fluorescence-labelled peptides as substrate at 1000 uM after 90 mins by microfluidic peptide phosphorylation assay.
Assay [20] has as its target Protein kinase C beta type (Homo sapiens) (UniProt P05771). Briefly: Inhibition of human full length PKC beta2 expressed in baculovirus assessed as substrate phosphorylation using fluorescence-labelled peptides as substrate at 1000 uM after 90 mins by microfluidic peptide phosphorylation assay.

Chain of Tyrosine-protein kinase Lyn (Homo sapiens) (P07948 2-512 limits assumed): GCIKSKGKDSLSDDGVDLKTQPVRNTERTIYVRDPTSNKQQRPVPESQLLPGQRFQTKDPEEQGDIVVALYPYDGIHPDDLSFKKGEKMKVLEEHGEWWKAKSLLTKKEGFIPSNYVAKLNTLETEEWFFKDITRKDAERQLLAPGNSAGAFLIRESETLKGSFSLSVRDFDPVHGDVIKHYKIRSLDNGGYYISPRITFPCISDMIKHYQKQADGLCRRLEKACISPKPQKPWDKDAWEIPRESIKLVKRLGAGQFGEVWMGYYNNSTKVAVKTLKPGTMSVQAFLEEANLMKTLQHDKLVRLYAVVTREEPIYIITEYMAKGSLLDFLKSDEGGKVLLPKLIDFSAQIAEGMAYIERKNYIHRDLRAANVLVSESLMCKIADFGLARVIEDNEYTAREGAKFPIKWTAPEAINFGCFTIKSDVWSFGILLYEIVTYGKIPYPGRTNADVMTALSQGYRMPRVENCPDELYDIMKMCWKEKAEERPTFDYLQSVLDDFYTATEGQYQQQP

In the case of `NCC1CCN(c2ncnc3[nH]ccc23)CC1`, the inhibition was determined as 87.5% in [1] and 82% in assay [2].
As for `c1nc(N2CCOCC2)c2nc[nH]c2n1`, the inhibition was 81.5% in assay [3], 0% in assay [4], 8% in assay [5] and 71% in [6].
In assay [7], `C[C@H](CN(C)C)Oc1nc(Nc2cc3cccc(Cl)c3cn2)cnc1C#N` registered an inhibition of 0%.
Consider `NC1(Cc2ccc(Cl)cc2)CCN(c2ncnc3[nH]ccc23)CC1`, for which the inhibition in the assay filed under Homo sapiens [8] is 17%.
For the molecule `Clc1ccc(C2(c3ccc(-c4ncnc5[nH]cnc45)cc3)CCNCC2)cc1`, the inhibition in assay [9] amounted to 2.5%.
Consider `NCC1CN(c2ncnc3[nH]c4cnccc4c23)CCO1` (stereo not given), for which the inhibition in assay [10] came to 12%.
For `CNCc1ccc(-c2ncnc3[nH]cnc23)cc1`, the values for the inhibition in assay [11] and in assay [12] were 28.5% and 88%, respectively.
For `NC1CCN(c2ncnc3[nH]ccc23)CC1`, the inhibition is 16.5% in assay [13] and 0.5% in assay [14].
With `NCCc1ccc(-c2ncnc3[nH]cnc23)cc1`, the results for the inhibition (in [15]; in assay [16]; in the assay filed under Homo sapiens [17]) were 53%, 85% and 49%, respectively.
Regarding `c1cnc2[nH]ccc2c1`, the results for the inhibition in [18], in [19] and in assay [20] were 52%, 18% and 21%, respectively.

The inhibition is how much of the control response was suppressed.
